Data on 22 molecules can be found in patent publication US20250122182A1 (Isosterix, Inc., priority 2023, published 2025).

What is called inhibition is the change of the read-out against control, counted positive when it falls.

For this test, the target named is Recombinant KAT6A/MOZ (488-778) protein (Homo sapiens (Human), UniProt Q92794). Nature of the test: KAT6A AlphaLISA Inhibition Screening Assay. The class given is biochemical. Particulars: for inhibition at 1 µM: read-out: Average Kat6A % inhibition @ 1 μM; for inhibition at 1 µM / Average Kat6A % inhibition @ 1 μM: 1 μM test compound; for inhibition at 10 µM: read-out: Average Kat6A % inhibition @ 10 μM; for inhibition at 10 µM / Average Kat6A % inhibition @ 10 μM: 10 μM test compound. How it is done: The Kat6a inhibitory activity of test compounds was determined using an Alpha Screen-based detection method. The assay reactions were conducted in a volume of 10 μL in Alpha Plate, White 384 well plate (cat #6008280, Perkin Elmer). The enzymatic reactions were performed in assay buffer pH 8.0 (50 mM Tris-HCl, 0.1 mM EDTA, 0.01% Tween-20, 1 mM Dithiothreitol, 0.1% BSA (fatty acid free) and 330 nM TSA (Trichostatin A)). 10 μL reaction volume consisting of 25 nM of Recombinant KAT6A/MOZ (488-778) protein (Active motif, Catalog #81223), 400 nM Acetyl coenzyme A (Catalog #A2056, Sigma), 200 nM of Histone H3 peptide [(amino acids 1-21), biotin-labeled (BPS Biosciences, Catalog #52011)]. Test compounds were screened at different doses starting with 10 μM, 3 fold dilution and 10 point Dose response curve. Enzyme and compounds solution were pre-incubated in assay plate for 60 or 10 min at room temperature then substrate and Acetyl coenzyme A solution were added to the plate. After addition, the plate was sealed with adhesive seals and incubated for 120 minutes at room temperature.
Chain of Recombinant KAT6A/MOZ (488-778) protein (Q92794 488-778): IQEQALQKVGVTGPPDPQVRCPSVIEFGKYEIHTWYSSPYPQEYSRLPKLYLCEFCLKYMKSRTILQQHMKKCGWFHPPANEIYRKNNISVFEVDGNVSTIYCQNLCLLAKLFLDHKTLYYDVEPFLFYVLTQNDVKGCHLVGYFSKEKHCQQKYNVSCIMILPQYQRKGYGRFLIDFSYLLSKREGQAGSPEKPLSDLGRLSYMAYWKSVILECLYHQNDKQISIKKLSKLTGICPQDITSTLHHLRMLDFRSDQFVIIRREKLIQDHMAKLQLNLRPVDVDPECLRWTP
After 120 minutes of incubation, […] of AlphaLISA anti-acetyl-Lysine acceptor beads (Perkin Elmer, Catalog #AL143C) were added to the plate and it was incubated for 60 minutes at room temperature. Then […] of Alpha Streptavidin donor beads (Perkin Elmer, Catalog #6760002S) were added to the plate which was further incubated for 60 minutes at room temperature. After incubation, the alpha signal was recorded by using Perkin Elmer Envision multi-mode reader. Percent inhibition of enzyme activity by test compounds were determined relative to vehicle control.

For the molecule `C=C(F)C(=O)N(C)Cc1cnn(Cc2cc(OC)c3c(NS(=O)(=O)c4cc(CC)ccc4OC)noc3c2)c1` [Syn. Ex. 39, N-((1-((3-((5-ethyl-2-methoxyphenyl)sulfonamido)-4-methoxybenzo[d]isoxazol-6-yl)methyl)-1H-pyrazol-4-yl)methyl)-2-fluoro-N-methylacrylamide], the inhibition at 1 µM is 92% and the inhibition at 10 µM amounted to 100%.

As for `CC#CC(=O)NCc1cnn(Cc2cc(OC)c3c(NS(=O)(=O)c4cc(C)c(C)cc4OC)noc3c2)c1` [Syn. Ex. 27, N-((1-((4-methoxy-3-((2-methoxy-4,5-dimethylphenyl)sulfonamido)benzo[d]isoxazol-6-yl)methyl)-1H-pyrazol-4-yl)methyl)but-2-ynamide], the inhibition at 1 µM stood at 100% and the inhibition at 10 µM was determined as 100%.

In the case of `C=C(F)C(=O)NCc1cnn(Cc2cc(OC)c3c(NS(=O)(=O)c4cc(C)c(C)cc4OC)noc3c2)c1` [Syn. Ex. 28, 2-fluoro-N-((1-((4-methoxy-3-((2-methoxy-4,5-dimethylphenyl)sulfonamido)benzo[d]isoxazol-6-yl)methyl)-1H-pyrazol-4-yl)methyl)acrylamide], the inhibition at 1 µM came to 100% and the inhibition at 10 µM came out at 100%.

With `CC#CC(=O)N1Cc2cnn(Cc3cc(OC)c4c(NS(=O)(=O)c5cc(CC)ccc5OC)noc4c3)c2C1` [Syn. Ex. 11, N-(6-((5-(but-2-ynoyl)-5,6-dihydropyrrolo[3,4-c]pyrazol-1(4H)-yl)methyl)-4-methoxybenzo[d]isoxazol-3-yl)-5-ethyl-2-methoxybenzenesulfonamide], the inhibition at 1 µM was found to be 100% and the inhibition at 10 µM is 100%.

In the case of `COC(=O)NCc1cnn(Cc2cc3onc(NS(=O)(=O)c4cc(C)cc5cccnc45)c3c3c2CCCO3)c1` [Syn. Ex. 132, methyl ((1-((9-((6-methylquinoline)-8-sulfonamido)-3,4-dihydro-2H-chromeno[8,7-d]isoxazol-5-yl)methyl)-1H-pyrazol-4-yl)methyl)carbamate], the “Average Kat6A % inhibition @ 1 μM” value is reported as 100% and the “Average Kat6A % inhibition @ 10 μM” value is on record as 99%.

Take `CCc1ccc(OC)c(S(=O)(=O)Nc2noc3cc(Oc4ccc(N)cn4)cc(OC)c23)c1` [Syn. Ex. 109, N-(6-((5-aminopyridin-2-yl)oxy)-4-methoxybenzo[d]isoxazol-3-yl)-5-ethyl-2-methoxybenzenesulfonamide]: the inhibition at 1 µM is 95% and the inhibition at 10 µM turned out to be 98%.

Consider `CCc1ccc(OCc2ccnc(OC)c2)c(S(=O)(=O)Nc2noc3cc(Cn4cc(CNC(=O)OC)cn4)cc(OC)c23)c1` [Syn. Ex. 95, methyl ((1-((3-((5-ethyl-2-((2-methoxypyridin-4-yl)methoxy)phenyl)sulfonamido)-4-methoxybenzo[d]isoxazol-6-yl)methyl)-1H-pyrazol-4-yl)methyl)carbamate], for which the inhibition at 1 µM was 100% and the inhibition at 10 µM worked out at 100%.

With `COc1cc2c(NS(=O)(=O)c3cc(C)ccc3OC)noc2cc1Cn1cc(CN)cn1` [Syn. Ex. 150, N-(6-((4-(aminomethyl)-1H-pyrazol-1-yl)methyl)-5-methoxybenzo[d]isoxazol-3-yl)-2-methoxy-5-methylbenzenesulfonamide], the inhibition at 1 µM is 101% and the inhibition at 10 µM turned out to be 103%.

Consider `C#CC(=O)NCc1cnn(Cc2cc(OC)c3c(NS(=O)(=O)c4cc(CC)ccc4OCC#N)noc3c2)c1` [Syn. Ex. 69, N-((1-((3-((2-(cyanomethoxy)-5-ethylphenyl)sulfonamido)-4-methoxybenzo[d]isoxazol-6-yl)methyl)-1H-pyrazol-4-yl)methyl)propiolamide], for which the inhibition at 1 µM amounted to 96% and the inhibition at 10 µM worked out at 99%.

Take `CCc1cc(S(=O)(=O)Nc2noc3cc(Cn4cc(CNC(=O)OC)cn4)cc(OC)c23)c(OC)cn1` [Syn. Ex. 120, methyl ((1-((3-((2-ethyl-5-methoxypyridine)-4-sulfonamido)-4-methoxybenzo[d]isoxazol-6-yl)methyl)-1H-pyrazol-4-yl)methyl)carbamate]: the “Average Kat6A % inhibition @ 1 μM” value is 100% and the “Average Kat6A % inhibition @ 10 μM” value was 100%.

Turning to `C=C(F)C(=O)NCc1ccnc(Oc2cc(OC)c3c(NS(=O)(=O)c4cc(CC)ccc4OC)noc3c2)c1` [Syn. Ex. 111, N-((2-((3-((5-ethyl-2-methoxyphenyl)sulfonamido)-4-methoxybenzo[d]isoxazol-6-yl)oxy)pyridin-4-yl)methyl)-2-fluoroacrylamide], the inhibition at 1 µM was 0% and the inhibition at 10 µM came to 54%.

`COc1ccc(C(C)(C)C)cc1S(=O)(=O)Nc1noc2cc(Cn3cc(CNS(C)(=O)=O)cn3)cc(OC)c12` [Syn. Ex. 33, 5-(tert-butyl)-2-methoxy-N-(4-methoxy-6-((4-(methylsulfonamidomethyl)-1H-pyrazol-1-yl)methyl)benzo[d]isoxazol-3-yl)benzenesulfonamide]: the inhibition at 1 µM is 96% and the inhibition at 10 µM worked out at 100%.

Regarding `C#CC(=O)N1Cc2cn(Cc3cc(OC)c4c(NS(=O)(=O)c5cc(OC)ccc5OC)noc4c3)nc2C1` [Syn. Ex. 5, 2,5-dimethoxy-N-(4-methoxy-6-((5-propioloyl-5,6-dihydropyrrolo[3,4-c]pyrazol-2(4H)-yl)methyl)benzo[d]isoxazol-3-yl)benzenesulfonamide], the inhibition at 1 µM stood at 83% and the inhibition at 10 µM was 100%.

In the case of `C#CCOc1ccc(CC)cc1S(=O)(=O)Nc1noc2cc(Cn3cc(CNC(=O)OC)cn3)cc(OC)c12` [Syn. Ex. 128, methyl ((1-((3-((5-ethyl-2-(prop-2-yn-1-yloxy)phenyl)sulfonamido)-4-methoxybenzo[d]isoxazol-6-yl)methyl)-1H-pyrazol-4-yl)methyl)carbamate], the inhibition at 1 µM amounted to 101% and the inhibition at 10 µM is 100%.

For the molecule `COc1cc(Cn2cc(CNS(C)(=O)=O)cn2)cc2onc(NS(=O)(=O)c3ccccc3OCc3ccccc3)c12` [Syn. Ex. 37, 2-(benzyloxy)-N-(4-methoxy-6-((4-(methylsulfonamidomethyl)-1H-pyrazol-1-yl)methyl)benzo[d]isoxazol-3-yl)benzenesulfonamide], the inhibition at 1 µM worked out at 100% and the inhibition at 10 µM came out at 100%.

Turning to `CCc1ccc(OCc2cccnc2)c(S(=O)(=O)Nc2noc3cc(Cn4cc(CNC(=O)OC)cn4)cc(OC)c23)c1` [Syn. Ex. 123, methyl ((1-((3-((5-ethyl-2-(pyridin-3-ylmethoxy)phenyl)sulfonamido)-4-methoxybenzo[d]isoxazol-6-yl)methyl)-1H-pyrazol-4-yl)methyl)carbamate], the inhibition at 1 µM came to 100% and the inhibition at 10 µM stood at 100%.

With `C=C(F)C(=O)NCc1cnn(Cc2cc(OC)c3c(NS(=O)(=O)c4cc(CC)ccc4OCc4ccccc4)noc3c2)c1` [Syn. Ex. 92, N-((1-((3-((2-(benzyloxy)-5-ethylphenyl)sulfonamido)-4-methoxybenzo[d]isoxazol-6-yl)methyl)-1H-pyrazol-4-yl)methyl)-2-fluoroacrylamide], the inhibition at 1 µM turned out to be 100% and the inhibition at 10 µM was 100%.

On to `CCc1ccc(OC)c(S(=O)(=O)Nc2noc3cc(Oc4nc(CNC(=O)OC)cs4)cc(OC)c23)c1` [Syn. Ex. 104, methyl ((2-((3-((5-ethyl-2-methoxyphenyl)sulfonamido)-4-methoxybenzo[d]isoxazol-6-yl)oxy)thiazol-4-yl)methyl)carbamate], for which the inhibition at 1 µM amounted to 25% and the inhibition at 10 µM worked out at 92%.

Consider `CCc1ccc(OC)c(S(=O)(=O)Nc2noc3cc(Oc4ncc(CNC(=O)OC)o4)cc(OC)c23)c1` [Syn. Ex. 100, methyl ((2-((3-((5-ethyl-2-methoxyphenyl)sulfonamido)-4-methoxybenzo[d]isoxazol-6-yl)oxy)oxazol-5-yl)methyl)carbamate], for which the inhibition at 1 µM turned out to be 92% and the inhibition at 10 µM is 100%.

For the molecule `CCc1ccc(OC)c(S(=O)(=O)Nc2noc3cc(Oc4cccc(CNC(=O)OC)n4)cc(OC)c23)c1` [Syn. Ex. 106, methyl ((6-((3-((5-ethyl-2-methoxyphenyl)sulfonamido)-4-methoxybenzo[d]isoxazol-6-yl)oxy)pyridin-2-yl)methyl)carbamate], the inhibition at 1 µM came to 10% and the inhibition at 10 µM worked out at 44%.

Turning to “N-[[2-[[4-methoxy-3-[(6-methoxyindan-5-yl)sulfonylamino]-1,2-benzoxazol-6-yl]oxy]thiazol-5-yl]methyl]carbamate [Syn. Ex. 148]”, the “Average Kat6A % inhibition @ 1 μM” value worked out at 115% and the “Average Kat6A % inhibition @ 10 μM” value came to 117%.

With `CCc1cnc(OC)c(S(=O)(=O)Nc2noc3cc(Cn4cc(CNC(=O)OC)cn4)cc(OC)c23)c1` [Syn. Ex. 121, methyl ((1-((3-((5-ethyl-2-methoxypyridine)-3-sulfonamido)-4-methoxybenzo[d]isoxazol-6-yl)methyl)-1H-pyrazol-4-yl)methyl)carbamate], the “Average Kat6A % inhibition @ 1 μM” value amounted to 100% and the “Average Kat6A % inhibition @ 10 μM” value was 94%.
